Source: publication PMC8653674, “Design, Synthesis, Docking Study and Biological Evaluation of 4-Hydroxy-2H-benzo[e][1,2]thiazine-3-carboxamide 1,1-dioxide Derivatives as Anti-HIV Agents” (Iranian Journal of Pharmaceutical Research : IJPR, 2021)
Read-outs that look alike come from different tables or passages of the source.

Assays:
[1] = test system: single-cycle replicable HIV NL4-3 virions in Hela cells; assay: single cycle HIV-1 replication assay (inhibition of p24 expression, capture ELISA); assay type: cell-based
Experimental: (§1) The anti-HIV-1 activity of target compounds was evaluated in a single cycle replication assay evaluated in our laboratory and reported previously. In this assay, the single-cycle replicable HIV NL4-3 virions (200 ng p24) were inoculated concurrently with compounds in different concentrations to the Hela cells. The inhibition rate (%) of p24 expression was measured by capture ELISA (Biomerieux, France) 72 hours after inoculation. Percentage inhibition of p24 expression in treated culture was calculated as inhibition rate of p24 (%). The XTT (sodium3-[1(phenylaminocarbonyl)-3,4-tetrazolium]-bis(4-methoxy-6-nitro)benzene sulfonic acid) proliferation assay was conducted to evaluate the cellular toxicity according to the kit instructions. The cytotoxic concentration that reduced the number of viable cells by 50% (CC50) was calculated after the determination of p24 load in the HIV-1 replication assay plates ([37]-[40]).
(§2) Fourteen 1,2-benzothiazine-3-carboxamide 1,1-dioxide derivatives containing different substituents at N-2 positions (12 and 13a-m) were synthesized and evaluated to inhibit the single-cycle HIV replication inhibition HeLa cell culture. Cytotoxicity of compounds was also tested in the same cell line to ensure the safety of compounds. Raltegravir was used as a positive control. Anti-HIV activity and cytotoxicity of compounds were expressed as EC50 and CC50, respectively. Selectivity Index (SI) was calculated using CC50/EC50 ratio.

Hela cells = assay: XTT proliferation assay for cellular toxicity; assay type: cell-based
Experimental: as §1, §2

[2] = XTT proliferation assay for cellular toxicity; assay type: cell-based; conditions: human; cytotoxicity in Hela cells, XTT
Experimental: as §1, §2

[3] = test system: single-cycle replicable HIV NL4-3 virions in Hela cells; design: method as in previously reported (b6); conditions: piroxicam value in Table 1, said in b54 to be previously reported; ref previously reported (b6); cited from earlier work
[4] = Human immunodeficiency virus 1, NL43, HeLa, 72 h

Molecule	EC50 ([1]; anti-HIV activity, single-cycle HIV NL4-3 in Hela cells, p24 at 72 hours, read-out: EC50) [µM]	CC50 (Hela cells) [µM]	EC50 [1, 4] [µM]	CC50 at 72 h [2] [µM]	melting point	EC50 [3] [µM]
2-(3,4-Dichlorobenzyl)-4-hydroxy-2H-benzo[e][1,2]thiazine-3-carboxamide 1,1-dioxide [Compound 13i]	110	510				
NC(=O)C1=C(O)c2ccccc2S(=O)(=O)N1 [Compound 12, 4-hydroxy-2H-benzo[e][1,2]thiazine-3-carboxamide 1,1-dioxide]			105	950	244 °C (dec.)	
CCN1C(C(N)=O)=C(O)c2ccccc2S1(=O)=O [Compound 13a, 2-Ethyl-4-hydroxy-2H-benzo[e][1,2]thiazine-3-carboxamide 1,1-dioxide]			80	550		
NC(=O)C1=C(O)c2ccccc2S(=O)(=O)N1CC1CCCCC1 [Compound 13b, 2-(Cyclohexylmethyl)-4-hydroxy-2H-benzo[e][1,2]thiazine-3-carboxamide 1,1-dioxide]			100	400	263 to 264 °C	
NC(=O)C1=C(O)c2ccccc2S(=O)(=O)N1Cc1ccccc1 [Compound 13c, 2-Benzyl-4-hydroxy-2H-benzo[e][1,2]thiazine-3-carboxamide 1,1-dioxide]			45	600	270 to 275 °C	
Cc1ccc(CN2C(C(N)=O)=C(O)c3ccccc3S2(=O)=O)cc1 [Compound 13d, 4-Hydroxy-2-(4-methylbenzyl)-2H-benzo[e][1,2]thiazine-3-carboxamide 1,1-dioxide]			25	680		
Cc1ccccc1CN1C(C(N)=O)=C(O)c2ccccc2S1(=O)=O [Compound 13e, 4-Hydroxy-2-(2-methylbenzyl)-2H-benzo[e][1,2]thiazine-3-carboxamide 1,1-dioxide]			55	650	268 to 271 °C	
COc1cccc(CN2C(C(N)=O)=C(O)c3ccccc3S2(=O)=O)c1 [Compound 13f, 4-Hydroxy-2-(3-methoxybenzyl)-2H-benzo[e][1,2]thiazine-3-carboxamide 1,1-dioxide]			50	640	273 to 275 °C	
NC(=O)C1=C(O)c2ccccc2S(=O)(=O)N1Cc1ccccc1Cl [Compound 13g, 2-(2-Chlorobenzyl)-4-hydroxy-2H-benzo[e][1,2]thiazine-3-carboxamide 1,1-dioxide]			40	650		
NC(=O)C1=C(O)c2ccccc2S(=O)(=O)N1Cc1ccc(Cl)cc1 [Compound 13h, 2-(4-Chlorobenzyl)-4-hydroxy-2H-benzo[e][1,2]thiazine-3-carboxamide 1,1-dioxide]			55	610		
NC(=O)C1=C(O)c2ccccc2S(=O)(=O)N1Cc1ccccc1F [Compound 13j, 2-(2-Fluorobenzyl)-4-hydroxy-2H-benzo[e][1,2]thiazine-3-carboxamide 1,1-dioxide]			35	680	268 to 273 °C	
NC(=O)C1=C(O)c2ccccc2S(=O)(=O)N1Cc1cccc(F)c1 [Compound 13k, 2-(3-Fluorobenzyl)-4-hydroxy-2H-benzo[e][1,2]thiazine-3-carboxamide 1,1-dioxide]			60	550	271 to 275 °C	
NC(=O)C1=C(O)c2ccccc2S(=O)(=O)N1Cc1ccc(F)cc1 [Compound 13l, 2-(4-Fluorobenzyl)-4-hydroxy-2H-benzo[e][1,2]thiazine-3-carboxamide 1,1-dioxide]			20	650		
NC(=O)C1=C(O)c2ccccc2S(=O)(=O)N1Cc1ccc([N+](=O)[O-])cc1 [Compound 13m, 4-Hydroxy-2-(4-nitrobenzyl)-2H-benzo[e][1,2]thiazine-3-carboxamide 1,1-dioxide]			25	650	288 °C (dec.)	
CN1C(C(=O)Nc2ccccn2)=C(O)c2ccccc2S1(=O)=O [Piroxicam, piroxicam, reference compound]				900		120
Cc1nnc(C(=O)NC(C)(C)c2nc(C(=O)NCc3ccc(F)cc3)c(O)c(=O)n2C)o1 [Raltegravir, raltegravir, reference compound]			0.9	> 500		
